Results from PMC13080969 (Journal of Chemical Information and Modeling, 2026).
Like-named read-outs stand apart in the source and are kept apart here.

Columns and labels:
[1] = Cytotoxicity assay (resazurin); type: cell-based; details: human, THP-1 cells, pH 7.4
Method: (§1) L. infantum promastigotes were grown at 26 °C in Schneider medium (Sigma), supplemented with 20% heat-inactivated fetal bovine serum (Sigma) and 1% penicillin-streptomycin (Sigma). To ensure maintenance of virulence, the parasites were serially passed through BALB/c mice. THP-1 cells were cultured in RPMI-1640 medium (Sigma-Aldrich), supplemented with 10% heat-inactivated SFB (Sigma) and 1% penicillin-streptomycin (Life Technologies), maintained at a density of 10^6 cells/mL, and incubated at 37 °C in a 5% CO2 atmosphere. For differentiation, THP-1 cells were seeded in 96-well culture plates at a concentration of 1 × 10^4 cells/well and treated with 100 ng/mL of […] (PMA, Sigma-Aldrich) and incubated for 48 h at 37 °C and 5% CO2. Cell viability was previously assessed using the Trypan Blue exclusion method. […] Differentiated THP-1 cells were washed with nonsupplemented RPMI-1640 and given fresh medium without PMA. The cells were rested for 24 h before further treatment.
THP-1 cells were cultured in 96-well plates at a density of 1 × 10^4 cells per well in 100 μL of RPMI 1640 medium supplemented with 10% heat-inactivated fetal bovine serum (FBS) and 25 mM HEPES (pH 7.4). Cultures were maintained at 37 °C in a humidified atmosphere containing 5% CO2. After 24 h of incubation, the test compounds were prepared in serial dilutions in complete medium, starting at a concentration of 200 μM. Subsequently, 100 μL of each diluted compound solution was added to the corresponding wells containing the cells, with each concentration tested in duplicate wells. Following a 72 h incubation period, resazurin solution (Sigma) was added to each well at a final concentration of 20 μM, and plates were incubated for an additional 4 h under the same conditions. Fluorescence was measured using a SpectraMax M5 microplate reader (Molecular Devices, Sunnyvale, CA, USA) with an excitation wavelength of 570 nm and an emission wavelength of 595 nm.

[2] = test system: intracellular L. infantum amastigotes; test: Intracellular assay in infected THP-1-derived macrophages; type: cell-based, Leishmania infantum; details: for IC50: 48 h; for Selectivity index Intracellular: SI = CC50/IC50
Method: as §1
THP-1 cells differentiated in 96-well culture plates were infected with promastigotes in the stationary phase at a ratio of 30 parasites: 1 cell for 4 h at 37 °C in a final volume of 100 μL. The noninternalized parasites were then removed by washing with RPMI-1640 medium. The compounds were diluted at concentrations of 200–0.7 μM in 100 μL of culture medium per well for serial dilution. Subsequently, 100 μL of the diluted compounds was added to the infected THP-1 cells and incubated for 48 h, with each condition tested in technical replicates (≥2 wells per condition). The number of intracellular parasites per 100 macrophages was counted using light microscopy. The infection rate was determined in relation to the mean of the control wells. The IC50 values were determined independently in three separate experiments by fitting concentration–response curves to a 4PL model in GraphPad Prism v10.

[3] = test system: L. infantum promastigotes; test: Promastigote assay (resazurin viability); type: cell-based, Leishmania infantum; details: for IC50: Leishmania infantum, 48 h, read-out: L. infantum IC50 Promastigotes; for Selectivity index Promastigotes: SI = CC50/IC50
Method: as §1
To evaluate the effect of prioritized compounds on parasite viability, 4 × 10^6 promastigotes/mL were incubated in the presence of a series of 11 points (0.1% DMSO) for 48 h at 28 °C to a final volume of 200 μL in a 96-well microplate, with each condition tested in technical replicates (≥2 wells per condition). Next, 20 μL of resazurin solution (0.39 mM) was added to each well and incubated for 4 h, and then fluorescence was recorded (570 nmex/595 nmem) on a microplate reader SpectraMax M5 (Molecular Devices, Sunnyvale, CA). The IC50 values were determined in three independent experiments by fitting concentration–response curves using nonlinear regression with a four-parameter logistic (4PL) model in GraphPad Prism v10.

[4] = Experimental determination of distribution coefficient (eLogD), chromatographic; type: physicochemical; details: Supelco Ascentis Express RP Amide HPLC column; pH 7.4, chromatographic retention method
Method: (§2) ADME profiling was conducted using liquid chromatography coupled with tandem mass spectrometry (LC–MS/MS).
The eLogD was carried out using a chromatographic method based on the analyte retention times within a stationary phase. Separation was performed on a Supelco Ascentis Express RP Amide high-performance liquid chromatography (HPLC) column (5 cm × 2.1 mm, 2.7 μm particle size), utilizing a binary mobile phase system composed of 5% methanol in 10 mM ammonium acetate buffer at pH 7.4 (designated as solvent A), and pure methanol (solvent B). […] The injection volume for each sample was 5 μL. Test compounds were diluted to a concentration of 1.0 mg/mL in a 1:1 mixture of mobile phases A and B, containing an internal standard at 200 nM. Final DMSO concentration was kept below 2%. […] A calibration curve was generated by plotting the retention times of these standards against their corresponding eLogD values. The linear regression equation (y = mx + b) obtained from this curve was then used to calculate the eLogD of each test compound.

[5] = Parallel artificial membrane permeability assay (PAMPA); type: in vitro ADME; details: donor pH 6.5, acceptor pH 7.4, 5 h, 37 °C; for Papp at 5 h, 10 μM: PAMPA, read-out: PAMPA Pe
Method: as §2
Each well is divided into two chambers, donor and acceptor, separated by a triple-layer phospholipid membrane constructed on a porous filter. Solutions of the compounds are prepared by diluting their respective stock solutions (10 mM in DMSO) in phosphate-buffered saline (PBS) at pH 6.5, yielding a final concentration of 10 μM (<1% DMSO, v/v). The solutions are then added to the donor portion of the plate (300 μL/well) in triplicate, while the acceptor portion received only PBS pH 7.4 (200 μL/well). The donor and acceptor portions are subsequently assembled, and the system is incubated for 5 h at 37 °C and 100 rpm. […] After the incubation period, samples are collected from the donor (10 μL) and acceptor (80 μL) wells and added to the analysis plate containing stop solution (300 μL) and PBS buffer pH 6.5 (60 μL). Final compound concentrations in the donor, acceptor, and Tzero wells are quantified by LC-MS/MS. The chromatogram for analysis was achieved on Supelco Ascentis express C18 column (3 cm × 2.1 mm, 5 μM). The mobile phases consisted of water +0.1% formic acid (A) and acetonitrile +0.1% formic acid (B). […] The results were used to calculate an effective permeability (Pe) value. All PAMPA assay was performed in triplicates.

[6] = Mouse liver microsomal stability assay; type: in vitro ADME; details: CD1, mouse, mouse liver microsomes, pH 7.4, 0.25 mg/mL protein; for microsomal CLint at 0.5 μM: read-out: MLM CLint; for half-life at 0.5 μM: read-out: MLM T 1/2
Method: as §2
Compounds were diluted to a final concentration of 0.5 μM and incubated with microsomal protein at 0.25 mg/mL in phosphate-buffered saline (PBS) at pH 7.4. The DMSO content in the incubation mixture was maintained below 1%. The metabolic reaction was initiated by introducing NADPH as a cofactor at a concentration of […]. Aliquots were taken at defined time intervals: 0 (immediately after NADPH addition), 5, 10, 20, 30, and 60 min. Reactions were halted by the addition of a quenching solvent consisting of a 1:1 mixture of acetonitrile and methanol containing an internal standard at 50 nM. Following quenching, samples were centrifuged at 3500 rpm for 30 min to pellet the precipitated microsomal proteins. The resulting supernatants were analyzed via LC–MS/MS. Quantification was performed based on the peak area ratio (PAR) of the analyte to internal standard, with the signal at time zero defined as 100%. The percentage of parent compound remaining at each time point was calculated accordingly. Using the plot of % remaining versus incubation time, the degradation rate constant (k) was determined via nonlinear regression. […] Chromatographic analysis was carried out using a Supelco Ascentis Express C18 column (3 cm × 2.1 mm, 5 μm particle size). The mobile phases were composed of water with 0.1% formic acid (A) and acetonitrile with 0.1% formic acid (B). […] All metabolic stability assays were conducted in triplicate.

[7] = test system: intracellular L. infantum amastigotes; set-up: method as in PMID 39334981; details: clinical comparators, cited from earlier work; for IC50: read-out: IC50 against intracellular L. infantum amastigotes
[8] = set-up: method as in PMID 39334981; details: clinical comparators; read-out: CC50 (cytotoxicity); cited from earlier work
[9] = Leishmania infantum, Macrophage, read-out: L. infantum IC50 Intracellular, THP-1-derived macrophages infected with L. infantum, 48 h
[10] = Leishmania infantum, Macrophage, THP-1-derived macrophages infected with L. infantum, read-out: L. infantum IC50 Intracellular
[11] = THP-1-derived macrophages infected with L. infantum, read-out: L. infantum IC50 Intracellular

| SMILES | CC50 at 72 h [1] [µM] | Selectivity index Intracellular [2] | IC50 ([3]; resazurin) [µM] | Selectivity index Promastigotes [3] | also measured |
| --- | --- | --- | --- | --- | --- |
| O=C(C(c1cccnc1)N1CCOCC1)N1CCCN(Cc2ccc(F)cc2)CC1 (centres unmarked) [LC-65] | > 245 | – | – | – | IC50 [2, 9]: > 55.5 µM; IC50 [3]: 3.59 ± 0.53 µM |
| Cc1ccccc1CN1CCC(CN(Cc2cccnc2)Cc2cc(CC(C)C)[nH]n2)CC1 [LC-58] | 35 ± 5.2 | 4.48 | 7.85 ± 0.64 | 4.45 | IC50 [2, 10]: 7.81 ± 4.13 µM |
| O=C(Nc1ccc(Cl)cn1)N1CCCCC1c1cccnc1 (centres unmarked) [LC-74] | > 200 | – | 0.49 ± 0.07 | – | chromatographic logD [4]: 2.39; Papp at 5 h, 10 μM [5]: 10.8 ×10⁻⁶ cm/s; microsomal CLint at 0.5 μM [6]: 27.2 µL/min/mg; half-life at 0.5 μM [6]: 1.7 h |
| CCCCCCCCCCCCCCCCOP(=O)([O-])OCC[N+](C)(C)C [miltefosine] | – | – | – | – | SI [7]: 138; IC50 [7]: 0.37 µM; CC50 [8]: 51.1 µM |
| Fc1cccc(CN(Cc2cccnc2)CC2CCCN(C3CCCCC3)C2)c1 (centres unmarked) [LC-63] | 32.9 ± 5.22 | – | – | 7.26 | IC50 [2, 9]: 11.5 ± 24 µM; IC50 [3]: 4.53 ± 0.8 µM |
| OC(COc1ccc(Br)cc1)Cn1ccnc1 (centres unmarked) [LC-75] | > 100 | >14.8 | 10.5 ± 1.26 | >9.52 | IC50 [2, 9]: < 10 µM; IC50 [2, 11]: 6.73 ± 3.27 µM |
| C[C@@H]1[C@H](O)[C@@H](C)/C=C/C=C/C=C/C=C/C=C/C=C/C=C/[C@H](O[C@@H]2O[C@H](C)[C@@H](O)[C@H](N)[C@@H]2O)C[C@@H]2O[C@](O)(C[C@@H](O)C[C@@H](O)[C@H](O)CC[C@@H](O)C[C@@H](O)CC(=O)O[C@H]1C)C[C@H](O)[C@H]2C(=O)O [Amphotericin B] | – | – | – | – | SI [7]: 8.6; IC50 [7]: 0.14 µM; CC50 [8]: 1.2 µM |
| CC(C)N1CCC(C(=O)NC(c2ccc(Cl)cc2)c2cccnc2)CC1 (centres unmarked) [LC-70] | – | – | > 20 | – | – |
| Cc1cc(F)ccc1N1CCC(NC(Cn2ccnc2)c2ccccc2)CC1 (centres unmarked) [LC-60] | 40.8 ± 28.2 | – | 0.43 ± 0.05 | – | chromatographic logD [4]: 4.45; Papp at 5 h, 10 μM [5]: 6.36 ×10⁻⁶ cm/s; microsomal CLint at 0.5 μM [6]: 120 µL/min/mg; half-life at 0.5 μM [6]: 0.386 h |
| Cc1ccc(C)c(-c2nc(NC(=O)c3ccncc3)sc2C)c1 [LC-68] | – | – | > 20 | – | – |
| O=C(NCCc1cnc[nH]1)c1cc(-c2ccccc2)nc2ccccc12 [LC-67] | – | – | > 20 | – | – |
| CC(C)n1cc(C(=O)NC(c2ccc(Cl)cc2)c2cccnc2)cn1 (centres unmarked) [LC-73] | – | – | > 20 | – | – |
| O=C(Cc1ccccc1)NC(c1ccc(Cl)cc1)c1cccnc1 (centres unmarked) [LC-66] | > 100 | >2.46 | 3.18 ± 0.72 | >31.4 | IC50 [2, 10]: 40.5 ± 58.7 µM |
| Cc1ccc(C)c(-c2nc(NC(=O)C3CC3)sc2C)c1 [LC-69] | – | – | > 20 | – | – |
| CCc1nc(C)c(C(=O)NCC(c2cccnc2)N2CCCCC2)s1 (centres unmarked) [LC-59] | – | – | > 20 | – | – |
| O=C1OCc2ccc(NC(=O)N3CCCCC3c3cccnc3)cc21 (centres unmarked) [LC-71] | > 200 | >20.5 | 11.7 ± 2.86 | >17.1 | IC50 [2, 9]: < 10 µM; IC50 [2, 11]: 9.76 ± 10.2 µM |
| Cc1ccccc1CN1CCC(CN(Cc2cccnc2)Cc2nc(C(C)C)cs2)CC1 [LC-64] | 27.8 ± 3.59 | 4.13 | 3.95 ± 0.42 | 7.03 | IC50 [2, 10]: 6.72 ± 5.79 µM |
| CCCCC(NC1CCN(c2ccccc2F)CC1)c1cccnc1 (centres unmarked) [LC-61] | 157 ± 20.7 | – | 0.037 ± 0.002 | – | chromatographic logD [4]: 4.07; Papp at 5 h, 10 μM [5]: 4.86 ×10⁻⁶ cm/s; PAMPA Pe [5]: 4.86 10^–6 cm/s |
| Fc1ccc(N2CCC(NCC(c3cccnc3)N3CCCCC3)CC2)cc1F (centres unmarked) [LC-62] | > 100 | >24.7 | 9.62 ± 0.98 | >10.4 | – |
| Cn1nnc2cc(NC(=O)N3CCCCC3c3cccnc3)ccc21 (centres unmarked) [LC-72] | – | – | > 20 | – | – |
